Test results as given in PubChem BioAssay AID2060483 (Molecular Pharmacology Branch, DTP, NCI, 2025).

Tested on: K24384-001-R-PDC complex spheroids, viability
Test: Anticancer human tumor K24384-001-R-PDC patient-derived pancreatic adenocarcinoma cell line growth inhibition [GQUAD]
Details: for IC50: curve of first compound; for viability, T/C: stronger effect = lower value
Outline: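 Multi-cell-type spheroids of tumor cells with HUVEC and mesenchymal stem cells, treated with drug combinations. Concentrations descend in half-log steps from near clinical Cmax, or from 10 microM where Cmax is unknown; viability read-out.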

[1] = second compound 0.0316 µM, first compound 0.0316 µM
[2] = second compound 0.0316 µM, first compound 0.1 µM
[3] = second compound 0.0316 µM, first compound 0.316 µM
[4] = second compound 0.0316 µM, first compound 1 µM
[5] = second compound 0.0316 µM, first compound 3.16 µM
[6] = second compound 0.0316 µM, first compound 10 µM
[7] = second compound 0.1 µM, first compound 0.0316 µM
[8] = second compound 0.1 µM, first compound 0.1 µM
[9] = second compound 0.1 µM, first compound 0.316 µM
[10] = second compound 0.1 µM, first compound 1 µM
[11] = second compound 0.1 µM, first compound 3.16 µM
[12] = second compound 0.1 µM, first compound 10 µM
[13] = second compound 0.316 µM, first compound 0.0316 µM
[14] = second compound 0.316 µM, first compound 0.1 µM
[15] = second compound 0.316 µM, first compound 0.316 µM
[16] = second compound 0.316 µM, first compound 1 µM
[17] = second compound 0.316 µM, first compound 3.16 µM
[18] = second compound 0.316 µM, first compound 10 µM
[19] = second compound 1 µM, first compound 0.0316 µM
[20] = second compound 1 µM, first compound 0.1 µM
[21] = second compound 1 µM, first compound 0.316 µM
[22] = second compound 1 µM, first compound 1 µM
[23] = second compound 1 µM, first compound 3.16 µM
[24] = second compound 1 µM, first compound 10 µM
[25] = second compound 3.16 µM, first compound 0.0316 µM
[26] = second compound 3.16 µM, first compound 0.1 µM
[27] = second compound 3.16 µM, first compound 0.316 µM
[28] = second compound 3.16 µM, first compound 1 µM
[29] = second compound 3.16 µM, first compound 3.16 µM
[30] = second compound 3.16 µM, first compound 10 µM
[31] = second compound 10 µM, first compound 0.0316 µM
[32] = second compound 10 µM, first compound 0.1 µM
[33] = second compound 10 µM, first compound 0.316 µM
[34] = second compound 10 µM, first compound 1 µM
[35] = second compound 10 µM, first compound 3.16 µM
[36] = second compound 10 µM, first compound 10 µM
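Also: spheroids exposed to compounds for seven days.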

**Q.** What does the source list for `C=CC(=O)N1CCN(c2nc(=O)n(-c3c(C)ccnc3C(C)C)c3nc(-c4c(O)cccc4F)c(F)cc23)C(C)C1` (stereo unspecified) + CN(C)c1ccc(Nc2c3ccc(NC(=O)CCN4CCCC4)cc3nc3cc(NC(=O)CCN4CCCC4)ccc23)cc1?
**A.** IC50 (second compound 0.0316 µM): > 10 µM; IC50 (second compound 0.1 µM): > 10 µM; IC50 (second compound 0.316 µM): > 10 µM; IC50 (second compound 1 µM): > 10 µM; IC50 (second compound 3.16 µM): > 10 µM; IC50 (second compound 10 µM): > 10 µM; viability, T/C [1]: 95.5%; viability, T/C [2]: 93.2%; viability, T/C [3]: 107%; viability, T/C [4]: 104%; viability, T/C [5]: 99.6%; viability, T/C [6]: 93.3%; viability, T/C [7]: 100%; viability, T/C [8]: 102%; viability, T/C [9]: 112%; viability, T/C [10]: 121%; viability, T/C [11]: 123%; viability, T/C [12]: 87.8%; viability, T/C [13]: 100%; viability, T/C [14]: 101%; viability, T/C [15]: 105%; viability, T/C [16]: 96.6%; viability, T/C [17]: 128%; viability, T/C [18]: 98.6%; viability, T/C [19]: 101%; viability, T/C [20]: 129%; viability, T/C [21]: 113%; viability, T/C [22]: 115%; viability, T/C [23]: 147%; viability, T/C [24]: 85.7%; viability, T/C [25]: 101%; viability, T/C [26]: 100%; viability, T/C [27]: 100%; viability, T/C [28]: 93%; viability, T/C [29]: 110%; viability, T/C [30]: 79%; viability, T/C [31]: 81.6%; viability, T/C [32]: 99.7%; viability, T/C [33]: 82.3%; viability, T/C [34]: 109%; viability, T/C [35]: 89%; viability, T/C [36]: 62.2%

**Q.** What does the source list for `Cc1cccc(N(C)C(=O)C2C(O)CCN2c2nc(C)cc(C(F)(F)F)c2C#N)c1` (stereo unspecified) + CN(C)c1ccc(Nc2c3ccc(NC(=O)CCN4CCCC4)cc3nc3cc(NC(=O)CCN4CCCC4)ccc23)cc1?
**A.** IC50 (second compound 0.0316 µM): > 10 µM; IC50 (second compound 0.1 µM): > 10 µM; IC50 (second compound 0.316 µM): > 10 µM; IC50 (second compound 1 µM): > 10 µM; IC50 (second compound 3.16 µM): > 10 µM; IC50 (second compound 10 µM): 3.01 µM; viability, T/C [1]: 95.3%; viability, T/C [2]: 87.9%; viability, T/C [3]: 91.3%; viability, T/C [4]: 90.6%; viability, T/C [5]: 109%; viability, T/C [6]: 111%; viability, T/C [7]: 101%; viability, T/C [8]: 110%; viability, T/C [9]: 106%; viability, T/C [10]: 102%; viability, T/C [11]: 100%; viability, T/C [12]: 97.6%; viability, T/C [13]: 90.2%; viability, T/C [14]: 81.9%; viability, T/C [15]: 85.4%; viability, T/C [16]: 87.7%; viability, T/C [17]: 102%; viability, T/C [18]: 95.3%; viability, T/C [19]: 98%; viability, T/C [20]: 83.6%; viability, T/C [21]: 94.7%; viability, T/C [22]: 107%; viability, T/C [23]: 91.8%; viability, T/C [24]: 94.3%; viability, T/C [25]: 93%; viability, T/C [26]: 86.2%; viability, T/C [27]: 80.4%; viability, T/C [28]: 104%; viability, T/C [29]: 117%; viability, T/C [30]: 74.4%; viability, T/C [31]: 89.7%; viability, T/C [32]: 79.8%; viability, T/C [33]: 76.2%; viability, T/C [34]: 61.8%; viability, T/C [35]: 51.1%; viability, T/C [36]: 31.9%

**Q.** Which results are given for `O=C(c1cc(Cc2n[nH]c(=O)c3ccccc23)ccc1F)N1CCN(C(=O)C2CC2)CC1` + CN(C)c1ccc(Nc2c3ccc(NC(=O)CCN4CCCC4)cc3nc3cc(NC(=O)CCN4CCCC4)ccc23)cc1?
**A.** IC50 (second compound 0.0316 µM): > 10 µM; IC50 (second compound 0.1 µM): > 10 µM; IC50 (second compound 0.316 µM): > 10 µM; IC50 (second compound 1 µM): > 10 µM; IC50 (second compound 3.16 µM): > 10 µM; IC50 (second compound 10 µM): > 10 µM; viability, T/C [1]: 91.5%; viability, T/C [2]: 87.2%; viability, T/C [3]: 103%; viability, T/C [4]: 85.3%; viability, T/C [5]: 94%; viability, T/C [6]: 65.3%; viability, T/C [7]: 98.4%; viability, T/C [8]: 97%; viability, T/C [9]: 102%; viability, T/C [10]: 82.5%; viability, T/C [11]: 78.7%; viability, T/C [12]: 76.3%; viability, T/C [13]: 82.2%; viability, T/C [14]: 90.1%; viability, T/C [15]: 102%; viability, T/C [16]: 81.2%; viability, T/C [17]: 87.8%; viability, T/C [18]: 72.2%; viability, T/C [19]: 85.3%; viability, T/C [20]: 103%; viability, T/C [21]: 97.1%; viability, T/C [22]: 108%; viability, T/C [23]: 92.9%; viability, T/C [24]: 71.2%; viability, T/C [25]: 89.5%; viability, T/C [26]: 90.6%; viability, T/C [27]: 92%; viability, T/C [28]: 100%; viability, T/C [29]: 86.5%; viability, T/C [30]: 62.2%; viability, T/C [31]: 86.4%; viability, T/C [32]: 89.5%; viability, T/C [33]: 94.6%; viability, T/C [34]: 91.2%; viability, T/C [35]: 86.2%; viability, T/C [36]: 61.4%
